Earlier results as cited in patent US8183227B1, “Compositions, kits and methods for nutrition supplementation” (Chemo S. A. France, priority 2011, dated 2012).

Settings: intake of about 1000 IU per day, all adults

SMILES: C=C1CC[C@H](O)C/C1=C/C=C1\CCC[C@]2(C)[C@@H]([C@H](C)CCCC(C)C)CC[C@@H]12 [vitamin D3, cholecalciferol]
- share of the population brought up to the 30 ng/ml serum range for 25-hydroxyvitamin D: at least 50 % of the population
